Key:
Test in all cases: malate dehydrogenase-coupled NADH assay, residual activity
Format in all cases: biochemical
[1] = molecular target: T1, AnPEPC (Nostoc sp. PCC 7120 = FACHB-418, UniProt P28594, K946E); settings: aspartate; allosteric
T1 construct: gene ppc

[2] = molecular target: T2, SyPEPC (Synechocystis sp. PCC 6803, UniProt P74299); settings: read-out: SyPEPC activity (in vitro)
T2 construct: gene ppc
T2 sequence (P74299 1-1034): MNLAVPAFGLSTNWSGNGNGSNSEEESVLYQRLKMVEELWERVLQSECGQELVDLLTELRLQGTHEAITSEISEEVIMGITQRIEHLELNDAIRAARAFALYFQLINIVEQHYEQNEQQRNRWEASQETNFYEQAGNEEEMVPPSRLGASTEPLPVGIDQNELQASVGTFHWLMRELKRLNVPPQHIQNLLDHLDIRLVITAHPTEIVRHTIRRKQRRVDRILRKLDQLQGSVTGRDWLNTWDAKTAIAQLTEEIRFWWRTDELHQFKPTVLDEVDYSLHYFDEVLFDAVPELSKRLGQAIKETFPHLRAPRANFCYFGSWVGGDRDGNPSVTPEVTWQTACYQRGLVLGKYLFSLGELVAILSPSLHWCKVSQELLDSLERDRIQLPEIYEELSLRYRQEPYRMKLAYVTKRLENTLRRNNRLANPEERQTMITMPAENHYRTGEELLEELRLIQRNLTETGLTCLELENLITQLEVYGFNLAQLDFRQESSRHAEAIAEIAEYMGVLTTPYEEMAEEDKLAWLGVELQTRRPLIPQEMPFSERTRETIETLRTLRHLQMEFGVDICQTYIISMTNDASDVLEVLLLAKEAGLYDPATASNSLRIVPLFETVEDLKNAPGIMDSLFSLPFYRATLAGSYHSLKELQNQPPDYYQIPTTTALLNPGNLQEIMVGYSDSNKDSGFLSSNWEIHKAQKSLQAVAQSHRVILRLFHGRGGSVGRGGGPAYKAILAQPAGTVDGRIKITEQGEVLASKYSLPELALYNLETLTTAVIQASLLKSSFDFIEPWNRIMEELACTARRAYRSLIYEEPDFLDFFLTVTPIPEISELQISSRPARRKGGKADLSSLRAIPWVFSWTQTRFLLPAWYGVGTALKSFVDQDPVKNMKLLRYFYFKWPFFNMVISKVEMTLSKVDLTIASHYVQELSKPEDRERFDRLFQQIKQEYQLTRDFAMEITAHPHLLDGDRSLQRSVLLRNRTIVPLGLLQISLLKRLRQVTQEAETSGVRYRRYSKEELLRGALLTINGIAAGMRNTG
From the text: malate dehydrogenase-coupled NADH assay, residual activity on SyPEPC

[3] = molecular target: T3, AnPEPC (Nostoc sp. PCC 7120 = FACHB-418, UniProt P28594); settings: aspartate; allosteric
T3 construct: gene ppc
T3 sequence (P28594 whole entry): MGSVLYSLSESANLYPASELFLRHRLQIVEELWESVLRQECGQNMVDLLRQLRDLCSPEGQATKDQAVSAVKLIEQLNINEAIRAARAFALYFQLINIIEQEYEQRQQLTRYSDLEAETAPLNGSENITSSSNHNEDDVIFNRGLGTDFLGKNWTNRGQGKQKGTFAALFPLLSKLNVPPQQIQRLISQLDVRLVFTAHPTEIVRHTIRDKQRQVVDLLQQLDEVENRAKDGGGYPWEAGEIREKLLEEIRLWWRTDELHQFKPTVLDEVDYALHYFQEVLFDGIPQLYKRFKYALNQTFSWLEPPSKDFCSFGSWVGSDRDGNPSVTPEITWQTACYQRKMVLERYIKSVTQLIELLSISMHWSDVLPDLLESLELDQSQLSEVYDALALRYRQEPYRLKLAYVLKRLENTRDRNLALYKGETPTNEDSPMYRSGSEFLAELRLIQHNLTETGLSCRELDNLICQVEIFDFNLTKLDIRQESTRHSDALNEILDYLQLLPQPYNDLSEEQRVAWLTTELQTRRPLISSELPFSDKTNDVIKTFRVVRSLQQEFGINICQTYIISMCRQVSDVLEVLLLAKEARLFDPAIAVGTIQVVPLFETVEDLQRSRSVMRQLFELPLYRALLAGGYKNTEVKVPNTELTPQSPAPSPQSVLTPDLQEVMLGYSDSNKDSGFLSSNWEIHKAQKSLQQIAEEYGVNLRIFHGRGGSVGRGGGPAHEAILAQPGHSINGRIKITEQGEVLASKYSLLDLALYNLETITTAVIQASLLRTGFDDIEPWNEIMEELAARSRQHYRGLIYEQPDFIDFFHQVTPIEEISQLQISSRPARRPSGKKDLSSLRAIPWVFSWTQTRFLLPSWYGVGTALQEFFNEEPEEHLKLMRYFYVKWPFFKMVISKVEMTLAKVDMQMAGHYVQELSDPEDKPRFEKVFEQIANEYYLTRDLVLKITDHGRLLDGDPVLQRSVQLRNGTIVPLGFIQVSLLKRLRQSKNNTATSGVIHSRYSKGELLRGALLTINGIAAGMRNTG

T1 sequence (P28594 whole entry K946E): as the sequence (P28594 whole entry) above, with K946E counted along it

activity at 1000 µM [2]: 85.2 ± 10.7%
Compound: N[C@@H](CC(=O)O)C(=O)O [aspartate]
% activity remaining [1]: The inhibitory effect of aspartate on AnPEPC was not altered by this amino acid substitution | % activity remaining [3]: The inhibitory effect of aspartate on AnPEPC was not altered by this amino acid substitution
